In brackets after ≈: the same amount, converted by molar mass. Several values for one entry are separate records, joined by “and”; a condition that tells them apart may be missing. Identical values can stand only once. Like-named read-outs stand apart in the source and are kept apart here.
Columns and labels:
Caco-2 cell monolayer = assay: Bidirectional permeability measurement in Caco-2 cells; format: in vitro ADME
Description: Bidirectional permeability of test compounds across a Caco-2 cell monolayer was measured as described[43] with a modification of preincubation time[44]: Briefly, Caco-2 cells were seeded onto Transwell inserts (#3379, Corning, Wiesbaden, Germany) at a density of 160000 cells/cm^2 and cultured in DMEM (high glucose) containing 10% fetal bovine serum for 14–21 days. Cells were incubated with culture media containing 1 µM test compound for 24 h. […] Samples were taken at different time points for up to 2 h. Test compound in the samples was quantified with LC-MS/MS. To elucidate the role of drug transporter P-gp in the transcellular transport, permeability measurement was performed in the absence and presence of the selective P-gp inhibitor zosuquidar (5 µM final concentration). Apparent permeability coefficients (Papp,AB, Papp,BA) were calculated as follows:1 Papp,AB=Q_AB/C0×s×t 2 Papp,BA=Q_BA/C0×s×t where Q is the amount of compound recovered in the receiver compartment after the incubation time t, C0 the initial compound concentration given to the donor compartment, and s the surface area of the Transwell inserts. Efflux ratio is calculated as the quotient of Papp,BA (mean of duplicate) to Papp,AB (mean of duplicate). […] In addition, Transepithelial electrical resistance (TEER) values were measured for each plate before the permeability assay. All three parameters (efflux of the reference substrates, Papp values of the low permeable compound, and TEER values) were used to ensure the quality of the assays.

PBRM1BD5 [1] = assay: TR-FRET ternary complex affinity and cooperativity, PBRM1; format: binding; conditions: ratio TR-FRET EC50 / TR-FRET EC50 +VCB measured in the same run, PBRM1BD5
PBRM1BD5 [2] = target: T1, PBRM1BD5 (Homo sapiens, UniProt P40337+Q86U86); assay: as above; format: binding; conditions: TR-FRET competition for PBRM1BD5, + VCB; mean ± SD; read-out: TR-FRET Ternary PBRM1BD EC50 (PROTAC + VCB)
T1 construct: GST (TEV site) (N); His6 (TEV site) (N, cleaved yes); made in house; host or cells: PBRM1^BD5: Escherichia coli BL21(DE3)
T1 sequence (Q86U86 645-766): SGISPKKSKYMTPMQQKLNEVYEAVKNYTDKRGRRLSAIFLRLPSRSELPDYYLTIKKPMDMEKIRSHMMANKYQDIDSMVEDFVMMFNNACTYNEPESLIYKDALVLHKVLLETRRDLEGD
T1 sequence (P40337 54-213): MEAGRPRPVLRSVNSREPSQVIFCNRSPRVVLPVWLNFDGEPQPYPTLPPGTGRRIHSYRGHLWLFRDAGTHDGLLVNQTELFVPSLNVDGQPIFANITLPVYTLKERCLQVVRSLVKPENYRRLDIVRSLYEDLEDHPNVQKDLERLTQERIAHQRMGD
T1 sequence (Q15369 17-112 partner): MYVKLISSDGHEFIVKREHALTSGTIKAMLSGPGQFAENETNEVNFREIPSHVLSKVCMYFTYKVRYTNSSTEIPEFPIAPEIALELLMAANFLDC
T1 sequence (Q15370 1-104 partner): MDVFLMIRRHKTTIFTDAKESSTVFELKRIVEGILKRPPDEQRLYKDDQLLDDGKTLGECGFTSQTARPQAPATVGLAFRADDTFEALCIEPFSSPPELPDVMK

[3] = target: VCB: PROTAC: SMARCA2^BD ternary complex (Homo sapiens, UniProt P40337+P51531); assay: SPR ternary complex measurement, VCB immobilised, 10 µM SMARCA2^BD present; format: binding; parameters: P51531-2, residues 1373-1493 with additional N-terminal SM residues; His6 (TEV site) (N, cleaved yes); GST (TEV site) (N, cleaved yes); made in house; host or cells: SMARCA2^BD: Escherichia coli BL21(DE3); conditions: for Kd: SPR; for alpha: cooperativity, SMARCA2, ratio of KD values measured in the same run
Sequence of VCB: PROTAC: SMARCA2^BD ternary complex (P40337 54-213): as the sequence (P40337 54-213) above
Sequence of VCB: PROTAC: SMARCA2^BD ternary complex (Q15369 17-112 partner limits assumed): as the sequence (Q15369 17-112 partner) above
Sequence of VCB: PROTAC: SMARCA2^BD ternary complex (Q15370 1-104 partner limits assumed): as the sequence (Q15370 1-104 partner) above
Sequence of VCB: PROTAC: SMARCA2^BD ternary complex (P51531 1373-1493 isoform P51531-2): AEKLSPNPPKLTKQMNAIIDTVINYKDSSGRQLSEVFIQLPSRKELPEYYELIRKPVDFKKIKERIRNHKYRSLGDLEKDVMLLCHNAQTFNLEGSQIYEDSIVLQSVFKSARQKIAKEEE
Description: (§1) SPR data were acquired on Biacore 8K or T200 instruments (Cytiva). Target proteins were immobilised at 25 °C on CM5 chips by amine coupling (EDC/NHS, Cytiva) in HBS-P+ running buffer (pH 7.4), containing 2 mM TCEP. […] The reference surface was subsequently deactivated using 1 M ethanolamine. […] Biotinylated VCB was prepared as previously described[27]: in brief, the complex was mixed 1:1 with EZ-Link NHS–PEG4–biotin (Thermo Scientific) and incubated at room temperature for 1 h. Unreacted NHS-biotin was removed using a PD-10 desalting column (Cytiva) into 20 mM HEPES, pH 7.5, 150 mM sodium chloride and 1 mM DTT. The reference surface was generated by deactivating the EDC/NHS-treated surface with 1 M ethanolamine. All interaction experiments were done at 6 °C in running buffer (20 mM TRIS, pH 8.3, 150 mM potassium chloride, 2 mM magnesium chloride, 2 mM TCEP, 0.005% TWEEN 20, 1% dimethyl sulfoxide). For ternary complex measurements, a sensor chip surface with VCB immobilised was used (preparation as described above). Experiments were run in dual-inject mode with 10 µM SMARCA present during the injection and dissociation phase. Sensorgrams from reference surfaces and blank injections were subtracted from the raw data prior to data analysis using Biacore Insight software. Affinity and binding kinetic parameters were determined by global fitting using the 1:1 interaction model with a term for mass-transport included.

Solubility testing = format: physicochemical; conditions: for solubility at 24 h: buffer, kinetic from dmso stock
Description: Dilution into a 1:1 mixture of acetonitrile and water was used as reference. After 24 h, the incubations were filtrated, and the filtrate was analyzed by LC-UV.

[4] = test system: VCB: PROTAC: SMARCA4^BD ternary complex; assay: TR-FRET ternary complex affinity and cooperativity, SMARCA4; format: binding, human; conditions: ratio TR-FRET EC50 / TR-FRET EC50 +VCB measured in the same run, SMARCA4BD
[5] = target: VCB: PROTAC: SMARCA4^BD ternary complex (Homo sapiens, UniProt P40337+P51532); assay: SPR ternary complex measurement, VCB immobilised, 10 µM SMARCA4^BD present; format: binding; parameters: P51532, residues 1448–1569 with additional N-terminal SM residues; His6 (TEV site) (N, cleaved yes); GST (TEV site) (N, cleaved yes); made in house; host or cells: SMARCA4^BD: Escherichia coli BL21(DE3); conditions: for Kd: SPR; for alpha: cooperativity, SMARCA4, ratio of KD values measured in the same run
Sequence of VCB: PROTAC: SMARCA4^BD ternary complex (Homo sapiens, UniProt P40337+P51532) (P40337 54-213): as the sequence (P40337 54-213) above
Sequence of VCB: PROTAC: SMARCA4^BD ternary complex (Homo sapiens, UniProt P40337+P51532) (Q15369 17-112 partner limits assumed): as the sequence (Q15369 17-112 partner) above
Sequence of VCB: PROTAC: SMARCA4^BD ternary complex (Homo sapiens, UniProt P40337+P51532) (Q15370 1-104 partner limits assumed): as the sequence (Q15370 1-104 partner) above
Sequence of VCB: PROTAC: SMARCA4^BD ternary complex (Homo sapiens, UniProt P40337+P51532) (P51532 1448-1569): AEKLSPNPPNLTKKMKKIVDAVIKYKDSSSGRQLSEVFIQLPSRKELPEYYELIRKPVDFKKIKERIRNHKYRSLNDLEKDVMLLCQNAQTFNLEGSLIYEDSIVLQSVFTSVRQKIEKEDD
Description: as §1

[6] = ternary complex with SMARCA2BD, mean ± SD
[7] = ternary complex with SMARCA4BD, mean ± SD

Which “Caco-2 Pab” value (Caco-2 cell monolayer; Caco-2) does the source give for Cc1ncsc1-c1ccc(CNC(=O)[C@@H]2C[C@@H](O)CN2C(=O)[C@@H](NC(=O)C2(F)CC2)C(C)(C)C)c(OCCN2CCC(c3ccc4c(c3)n(C3CCCC3)c3nc(=O)c5c(Br)cccc5n43)CC2)c1 [compound 20] here?
Its value is <0.4 10-6 cm/s.

What about the “Caco-2 Pab” value (Caco-2 cell monolayer; Caco-2, a to b) of the same molecule?
The value was <4.04e-07 cm/s.

What about the “cooperativity α (PBRM1BD)” value (PBRM1BD5 [1]) of the same molecule?
Its value is 1.1 ± 0.1.

What about the EC50 (PBRM1BD5 [2]) of the same molecule?
Its EC50 is 35 ± 4 nM.

And the Kd [3, 6]?
The Kd was 97 ± 10 nM.

What about the Kd ([3]; ternary, individual replicates) of the same molecule?
The Kd was 89.5 nM and 108 nM and 91.8 nM.

And the alpha [3]?
The alpha was 0.1.

And the “Solubility pH 4.5” value (Solubility testing; pH 4.5)?
The value was <1.000 <1.000 <1.000 <1.000 <1.000 ug/mL.

And the “Solubility pH 6.8” value (Solubility testing; pH 6.8)?
The value was <1.000 <1.000 <1.000 <1.000 <1.000 ug/mL.

What about the “cooperativity α (SMARCA4BD)” value [4] of the same molecule?
The value was 0.4 ± 0.0.

What about the Kd [5, 7] of the same molecule?
Its Kd is 67 ± 3 nM.

And the Kd ([5]; ternary, individual replicates)?
The Kd was 67.7 nM and 69.3 nM and 63.7 nM.

And the alpha [5]?
The alpha was 0.1.

For Cc1ncsc1-c1ccc(CNC(=O)[C@@H]2C[C@@H](O)CN2C(=O)[C@@H](NC(=O)C2(F)CC2)C(C)(C)C)c(OCCOCCOCCN2CCC(c3ccc4c(c3)n(C3CCCC3)c3nc(=O)c5c(Br)cccc5n43)CC2)c1 [compound 21], which “Caco-2 Pab” value (Caco-2 cell monolayer; Caco-2) is on record?
Its value is <0.3 10-6 cm/s.

What about the “Caco-2 Pab” value (Caco-2 cell monolayer; Caco-2, a to b) of the same molecule?
Its value is <2.83e-07 cm/s.

And the “cooperativity α (PBRM1BD)” value (PBRM1BD5 [1])?
The value was 2.0 ± 0.1.

And the EC50 (PBRM1BD5 [2])?
Its EC50 is 38 ± 4 nM.

What about the Kd [3, 6] of the same molecule?
Its Kd is 58 ± 8 nM.

And the Kd ([3]; ternary, individual replicates)?
Its Kd is 49 nM and 65.4 nM and 58.3 nM.

And the alpha [3]?
Its alpha is 0.4.

And the “Solubility pH 4.5” value (Solubility testing; pH 4.5)?
The value was 200.000 ug/mL and 180.000 ug/mL and 190.000 ug/mL.

And the “cooperativity α (SMARCA4BD)” value [4]?
The value was 4.0 ± 0.2.

What about the Kd [5, 7] of the same molecule?
The Kd was 16 ± 11 nM.

What about the Kd ([5]; ternary, individual replicates) of the same molecule?
Its Kd is 28 nM and 7.74 nM and 13 nM.

What about the alpha [5] of the same molecule?
The alpha was 1.3.

Which results are given for Cc1ncsc1-c1ccc(CNC(=O)[C@@H]2C[C@@H](O)CN2C(=O)[C@@H](NC(=O)C2(F)CC2)C(C)(C)C)c(OCCCCN2CCC(c3ccc4c(c3)n(C3CCCC3)c3nc(=O)c5c(Br)cccc5n43)CC2)c1 [compound 23]?
Caco-2 Efflux ratio (Caco-2 cell monolayer; Caco-2): 26.136 and 26; Caco-2 Pab (Caco-2 cell monolayer; Caco-2): 0.4 10-6 cm/s; Caco-2 Pab (Caco-2 cell monolayer; Caco-2, a to b): 4.01e-07 cm/s; cooperativity α (PBRM1BD) (PBRM1BD5 [1]): 2.0 ± 0.4; EC50 (PBRM1BD5 [2]): 21 ± 3 nM; Kd [3, 6]: 120 ± 8 nM; Kd ([3]; ternary, individual replicates): 116 nM (2×) and 129 nM; alpha [3]: 0.1; Solubility pH 4.5 (Solubility testing; pH 4.5): <1.000 ug/mL; Solubility pH 6.8 (Solubility testing; pH 6.8): <1.000 ug/mL; cooperativity α (SMARCA4BD) [4]: 0.9 ± 0.1; Kd [5, 7]: 84 ± 1 nM; Kd ([5]; ternary, individual replicates): 84.3 nM and 82.7 nM and 85 nM; alpha [5]: 0.2

Which “Caco-2 Pab” value (Caco-2 cell monolayer; Caco-2) does the source give for Cc1ncsc1-c1ccc([C@H](CCCCN2CCC(c3ccc4c(c3)n(C3CCCC3)c3nc(=O)c5c(Br)cccc5n43)CC2)NC(=O)[C@@H]2C[C@@H](O)CN2C(=O)[C@@H](NC(=O)C2(F)CC2)C(C)(C)C)cc1 [compound 25] here?
Its value is <4 10-6 cm/s.

What about the “Caco-2 Pab” value (Caco-2 cell monolayer; Caco-2, a to b) of the same molecule?
The value was <4.3e-06 cm/s.

And the “cooperativity α (PBRM1BD)” value (PBRM1BD5 [1])?
The value was 11.2 ± 2.1.

And the EC50 (PBRM1BD5 [2])?
Its EC50 is 3 ± 1 nM.

And the Kd [3, 6]?
Its Kd is 36 ± 15 nM.

And the Kd ([3]; ternary, individual replicates)?
The Kd was 22.7 nM and 51.6 nM and 32.9 nM.

And the alpha [3]?
Its alpha is 0.2.

What about the “Solubility pH 4.5” value (Solubility testing; pH 4.5) of the same molecule?
The value was <1.000 ug/mL.

What about the “Solubility pH 6.8” value (Solubility testing; pH 6.8) of the same molecule?
Its value is <1.000 ug/mL.

What about the “cooperativity α (SMARCA4BD)” value [4] of the same molecule?
The value was 2.3 ± 0.4.

And the Kd [5, 7]?
The Kd was 14 ± 2 nM.

And the Kd ([5]; ternary, individual replicates)?
The Kd was 12.8 nM and 13.3 nM and 15.6 nM.

And the alpha [5]?
The alpha was 0.4.

Which results are given for Cc1ncsc1-c1ccc([C@H](COCCN2CCC(c3ccc4c(c3)n(C3CCCC3)c3nc(=O)c5c(Br)cccc5n43)CC2)NC(=O)[C@@H]2C[C@@H](O)CN2C(=O)[C@@H](NC(=O)C2(N(C)C)CC2)C(C)(C)C)cc1 [compound 26]?
Caco-2 Pab (Caco-2 cell monolayer; Caco-2, a to b): <2.7e-06 cm/s; cooperativity α (PBRM1BD) (PBRM1BD5 [1]): 4.0 ± 1.2; EC50 (PBRM1BD5 [2]): 6 ± 2 nM; Kd [3, 6]: 95 ± 37 nM; Kd ([3]; ternary, individual replicates): 64.1 nM and 136 nM and 86.3 nM; alpha [3]: 0.8; solubility at 24 h (Solubility testing; pH 4.5, aqueous buffer, pH 4.5, read-out: Solubility pH 4.5): 200 µg/mL (≈ 188 µM); solubility at 24 h (Solubility testing; pH 6.8, aqueous buffer, pH 6.8, read-out: Solubility pH 6.8): < 1 µg/mL; cooperativity α (SMARCA4BD) [4]: 2.6 ± 0.7; Kd [5, 7]: 116 ± 16 nM; Kd ([5]; ternary, individual replicates): 105 nM and 109 nM and 135 nM; alpha [5]: 0.7

With Cc1ncsc1-c1ccc([C@H](COCCCN2CCC(c3ccc4c(c3)n(C3CCCC3)c3nc(=O)c5c(Br)cccc5n43)CC2)NC(=O)[C@@H]2C[C@@H](O)CN2C(=O)[C@@H](NC(=O)C2(F)CC2)C(C)(C)C)cc1 [compound 27] as the molecule, how does the “Caco-2 Efflux ratio” value (Caco-2 cell monolayer; Caco-2) read?
Its value is 4.167 and 4.

And the “Caco-2 Pab” value (Caco-2 cell monolayer; Caco-2)?
Its value is 5 10-6 cm/s.

And the “cooperativity α (PBRM1BD)” value (PBRM1BD5 [1])?
The value was 12.2 ± 2.8.

What about the EC50 (PBRM1BD5 [2]) of the same molecule?
The EC50 was 3 ± 0.5 nM.

And the Kd [3, 6]?
The Kd was 26 nM.

What about the Kd ([3]; ternary, individual replicates) of the same molecule?
The Kd was 26.7 nM and 25.9 nM and 26.4 nM.

What about the alpha [3] of the same molecule?
Its alpha is 0.5.

And the “Solubility pH 4.5” value (Solubility testing; pH 4.5)?
The value was <1.000 <1.000 ug/mL.

And the “Solubility pH 6.8” value (Solubility testing; pH 6.8)?
The value was <1.000 <1.000 ug/mL.

What about the “cooperativity α (SMARCA4BD)” value [4] of the same molecule?
Its value is 2.8 ± 0.5.

And the Kd [5, 7]?
The Kd was 18 ± 1 nM.

What about the Kd ([5]; ternary, individual replicates) of the same molecule?
Its Kd is 16.7 nM and 17.5 nM and 19.5 nM.

What about the alpha [5] of the same molecule?
Its alpha is 0.7.

— article PMC9551036, “A selective and orally bioavailable VHL-recruiting PROTAC achieves SMARCA2 degradation in vivo” (Nature Communications, 2022)
